Experiments:
[1] = test system: IL-17 production in human blood; test: Effect on IL-17 production in human blood; format: cell-based; settings: 72 h, 10 μM test compound, IL-23 and Dynabeads stimulation, 3 days, read-out: Percent Inhibition at 10 μM (IL-17 production)
Method: Effect on IL-17 Production in Human Blood
The inhibitory effect of the test compound on IL-17 production in human blood was evaluated as follows. First, 150 μL of peripheral blood collected from healthy individuals using heparinized vacuum blood collection tubes was dispensed into each well of a 96-well plate (Corning), and 45 μL of RPMI 1640 medium (Gibco) containing 10% fetal bovine serum (FBS, Hyclone) and 30 μL of the test compound diluted with the medium was added to each well. The plate was then cultured for 30 min at 37° C. Cells were subsequently stimulated by adding 30 μL of 100 ng/mL human IL-23 (R&D) and 45 μL of Dynabeads Human (Invitrogen) to each well and culturing the plate for 3 days at 37° C. In wells without stimulation, 75 μL of RPMI 1640 medium containing 10% FBS was added instead of the IL-23 and Dynabeads solution. After culturing for 3 days, the culture supernatant was collected, and the amount of IL-17 in the supernatant was measured using an IL-17 ELISA kit (R&D).
The results of the above-described measurements (percent inhibition of IL-17 production with 10 μM of the test compound) are shown in Table 4.

[2] = test system: IL-17A gene expression; test: Effect on IL-23-induced cytokine expression in mice; format: in vivo, Balb/c mice; settings: Mus musculus; dose 10 mg/kg oral, 30 min before and 8 hr after IL-23; versus the negative control group; read-out: Percent inhibition of IL-17A gene expression
Method: Effect on IL-23-induced Cytokine Expression in Mice
A mouse IL-23 solution (500 ng/10 μL, prepared by Takeda Pharmaceutical Company Limited) or PBS (10 μL, negative control group) was administered intradermally in the ear of Balb/c mice (Charles River Japan, male, 7 weeks old). Twenty-four hr after administration, the ear was resected under isoflurane anesthesia. The test compound was suspended in 0.5% methylcellulose and administered orally 30 min before and 8 hr after IL-23 administration.
RNA extraction from the ear tissue and quantitative PCR were performed as follows. Specifically, ear tissue 5 mm in diameter was punched from an area of the resected ear centering on the IL-23 injection site, and the tissue was immersed in RNAlater (QIAGEN) for at least 18 hr. The RNAlater-treated ear tissue was homogenized in 350 μL of RLT buffer (RNeasy mini kit, QIAGEN) and treated (55° C., 10 min) with Proteinase K (QIAGEN). Total RNA was then extracted according to the RNeasy mini kit protocol. The RNA thus obtained was then reverse transcribed into cDNA using the High-Capacity RNA-to-cDNA kit (Applied Biosystems), and the amount of each cytokine expressions was measured by real-time PCR (Viia7™, Applied Biosystems). The PCR buffer used was TaqMan Fast Advanced Master Mix (Applied Biosystems), and TaqMan Gene Expression Assays (Applied Biosystems) Mm00439618 ml (IL-17A) and 4352341E (β-actin) were used for cytokine gene detection. The IL-17A gene expression level was normalized to the R-actin gene expression level, and the percent inhibition of IL-17A gene expression with the test compound was then calculated.
The results obtained with the above-described method (percent inhibition of IL-17A gene expression with oral administration of the test compound) are shown in Table 5.

[3] = test system: mouse model of IL-23-induced psoriasis; test: Effect in a mouse model of IL-23-induced psoriasis; format: in vivo, Balb/c mice; settings: dose 30 mg/kg oral twice daily; versus the negative control group
Method: Effect in a Mouse Model of IL-23-induced Psoriasis
Mouse IL-23 (500 ng/15 μL, R&D) or PBS (15 μL, negative control group) was administered intradermally in the ear of Balb/c mice (Charles River Japan, male, 7 weeks old) 5 times every other days. Seven hr after IL-23 administration at 8 days after the initial administration (final administration), the mice were anesthetized with isoflurane, and ear thickness was measured with calipers. After the ear thickness was measured, the ear was resected, tissue 8 mm in diameter was punched from an area centering on the IL-23 injection site, and the tissue was weighed. The punched ear tissue was cut in half, and one half was immersion-fixed in 10% neutral buffer formalin solution for use in histopathological evaluation. The other half was immersed in RNAlater (QIAGEN) for at least 18 hr for use in an evaluation of the IL-17A mRNA expression level. The test compound was suspended in 0.5% methylcellulose and administered orally twice daily on consecutive days from 30 min before the initial IL-23 administration to 30 min before the final IL-23 administration.
The change in ear thickness in this model was evaluated by calculating the difference in measured thickness between before IL-23 administration and 7 hr after the final IL-23 administration. In addition, the formalin-fixed tissue was embedded and sectioned, then stained with hematoxylin-eosin. The degree of acanthosis was then evaluated qualitatively by microscopy (classified with a score of 0 to 4). RNA extraction from the ear tissue and quantitative PCR were performed as follows. […] The RNA thus obtained was reverse transcribed into cDNA using the High-Capacity RNA-to-cDNA kit (Applied Biosystems), and the expression of each gene was measured by real-time PCR (Viia7™, Applied Biosystems). […] The IL-17A gene expression level was normalized to the R-actin gene expression level, and the percent inhibition of IL-17A gene expression with the test compound was then calculated. […]

`COc1ccc2c(n1)CCN(C(=O)CCCC(=O)O)[C@H]2C(=O)Nc1cc(F)c2c(c1)CCC2(C)C` [Example 118, 5-((5R)-5-((7-fluoro-1,1-dimethyl-2,3-dihydro-1H-inden-5-yl)carbamoyl)-2-methoxy-7,8-dihydro-1,6-naphthyridin-6(5H)-yl)-5-oxopentanoic acid] was tested, and the inhibition at 10 µM [1] was 88%, the inhibition in vivo at 10 mg/kg [2] was 87% and the “Percent Inhibition of Acanthosis Score” value [3] was 80%. For the same compound, the “Percent Inhibition of Ear Thickness” value [3] was 61% and the “Percent Inhibition of IL-17A Expression” value [3] was 111%.
